Laboratory results: a melting point compilation (Tetko et al.; mined from patent text by program, amines drawn as free bases though some values may be those of a salt)

Compound	melting point
CC(C)(C)OC(=O)N1CC(O)C(SCc2ccccc2)C1 (configuration not stated)	97 to 98 °C
COc1ccc(NS(=O)(=O)c2ccc(NC3=C(Cl)C(=O)c4ccccc4C3=O)cc2OC)cc1	165 to 167 °C
NNC1CCC(c2ccccc2F)c2cc(Cl)ccc2N1 (configuration not stated)	213 to 215 °C
Cc1cc(F)ccc1-c1cc(NCCNC(=O)NC2CCCCC2)nc2c1C=NC(=O)C2c1c(F)cccc1F (configuration not stated)	178 to 183 °C
CN1CCN(Cc2c(O)ccc3c2OCO3)CC1	85 to 87 °C
COc1ccc(CC#N)c2c1OC(C)(C)O2	58 to 59 °C
CCCOc1ccc(F)cc1OCCN1C(=O)c2ccccc2C1=O	102 to 103 °C
Clc1ccc(-c2nc(COCc3ccccc3)ns2)nn1	109 to 110 °C
O=C1C(CCO)Oc2cc(F)ccc2N1Cc1cccc(Cl)c1 (configuration not stated)	79 to 82 °C
COc1cccc(C=C2C(=O)NC(=O)N2C)c1	195 to 197 °C
O=C(NCc1ccc(F)c(F)c1)c1ccnc(N2CCN(Cc3ccccn3)C2=O)c1	143 to 145 °C
COP(=O)(CN[C@@H](Cc1ccc(-c2ccccc2)cc1)C(=O)O)OC	133 to 136 °C
CSC(=O)C(C)(C)NC(=O)c1cc2c(n(CC3CCCCC3)c1=O)CCCCCC2	196 to 198 °C
CC(C)(C)NCC(O)COc1ccccc1C#Cc1ccc(C(N)=O)cc1 (configuration not stated)	199 to 201 °C
CCCCc1ccc(-c2cc(Cl)c(C#N)cn2)cc1	107 °C
O=c1c2cccnc2n(-c2cccc([N+](=O)[O-])c2)c(=O)n1Cc1ccccc1	219 to 220 °C
CS(=O)(=O)c1ccc(-n2nc(C(F)(F)F)cc2-c2ccc(-c3ncco3)cc2)cc1	190 to 192 °C
COc1ccc(C2(C#N)CCC(=O)CC2)cc1OC1CCCC1	111 to 112 °C
Fc1cc2c(c3cccnc13)OC(CN1CC=C(c3c[nH]c4ccccc34)CC1)CO2 (configuration not stated)	215 °C
O=C1c2c(O)ccc(O)c2C(=O)c2c(NCCN(CCO)CCO)ccc(NCCN(CCO)CCO)c21	134 to 136 °C
CN(C)C(=O)Nc1ccc(Oc2ccc3sncc3c2)c(Cl)c1	149 °C
CNC(=O)Nc1ccccc1	149 to 150 °C
COc1cc([N+](=O)[O-])c(C=O)cc1OCc1ccccc1	131 to 132 °C
CCCc1nn(C)c2c(=S)[nH]c(-c3ccccc3OC)nc12	160 to 161 °C
CC(=O)Nc1cccc(-c2ccc3nncn3n2)c1	248 to 250 °C
CC[C@H]1c2ccc(C#N)n2-c2cc(F)c(F)cc2N1S(=O)(=O)c1ccc(O)c(C)c1	201 to 203 °C

Compound	melting point
CC(=O)SCC(=Cc1ccc(-c2ccccc2)cc1)C(=O)NCCC(=O)OCc1ccccc1	76 °C
COP(=S)(NNC(C)(C)C)OC	51 to 54 °C
CC(C(=O)O)c1ccc2nc3c(Cl)cc(Cl)cn3c(=O)c2c1 (configuration not stated)	241 °C
O=C(C=Cc1ccc(Br)cc1)c1cc(Br)ccc1[N+](=O)[O-]	169 to 190 °C
COc1ccc(-n2nc(C(F)F)cc2-c2ccc(S(C)(=O)=O)cc2)cc1Cl	169 to 171 °C
Fc1ccc(-c2cncc(CN3CC=C(c4ccccc4)CC3)c2)cc1	128 to 129 °C
CCCCc1c(C(=O)OCC)[nH]c2c(Br)cccc2c1=O	88 °C
CONc1nc(N)nc2c1ncn2[C@@H]1C[C@H](CO)[C@@H](O)[C@H]1O	106 to 110 °C
CC1CCC(N(CC2CCC(CN(C(=O)Nc3ccc(N(C)C)cc3)C3CCC(C)CC3)CC2)C(=O)Nc2ccc(N(C)C)cc2)CC1 (configuration not stated)	150 to 153 °C
O=C(N[C@H]1C[C@H](C(=O)O)Nc2cc(Cl)cc(Cl)c21)C1c2ccccc2-c2ccccc21 (relative stereo)	266 to 268 °C
CCOc1cc2ncc(C#N)c(Nc3ccc4c(c3)C(=O)NC4=O)c2cc1OCC	248 to 251 °C
O=c1nc(-c2cccc(CS(=O)(=O)Cc3ccccc3)n2)sc2ccccc12	246 to 248 °C
CCCOc1ccc(Br)cc1-c1nc2c(CCC)nn(C)c2c(=O)[nH]1	117 to 118 °C
Cn1ncsc1=NC(=S)Nc1ccccc1	174 to 175 °C
CC(C)CC(NC(=O)C(Cc1c[nH]cn1)NC(=O)C(CC(=O)N1CCOCC1)Cc1cccc2ccccc12)C(O)C(=O)OC(C)C (mixture of isomers)	95 to 98 °C
CCOCC1COc2c(cc3ncc(C(=O)O)c(O)c3c2Cl)O1 (configuration not stated)	266 to 267 °C
NS(=O)(=O)c1cc(C(=O)CBr)ccc1Cl	169 °C
CCCCCCCSc1nnc(N)s1	112 to 113 °C
CCn1nc(-c2ccc(F)cc2)c(-c2ccncc2)c1C(=O)N(C)Cc1ccccn1	144 to 147 °C
CCOC(=O)N1Cc2cccc3c2c(cn3C)C1	76 to 78 °C
Cn1c(C(F)(F)F)ccc(-c2cc3c(cc2F)OCC(=O)N3)c1=O	216 to 218 °C
CS(=O)(=O)c1ccc(Cn2ccc3c4c(N)nc(N)nc4ccc32)cc1	248 °C
CSC1=NC(C)C(c2ccccc2)=NN1 (configuration not stated)	159 to 160 °C
CCCCCCCCCC(=O)NC(=O)OCc1nc(C(C)C)c(Sc2cc(Cl)cc(Cl)c2)n1CC	102 to 103 °C
Cc1c2c(nn1C(C)C)c(N)nc1ccccc12	221 to 222 °C
CC(C)Oc1ccc(-c2nc(-c3ccc(OC(C)C)cc3O)nc(-c3ccc(OC(C)C)cc3O)n2)c(O)c1	122 °C

More lines, now with the values ahead:

melting point	Compound
91 to 92 °C	COC(=O)COc1cccc2c(CCS(=O)(=O)CCc3ccccc3)c(C)oc12
148 to 150 °C	Cc1csc(N)c1C(=O)c1ccc(Cl)cc1
143 to 144 °C	CCc1cc(OCc2ccc(-c3ccccc3-c3nnn(C(c4ccccc4)(c4ccccc4)c4ccccc4)n3)cc2)c2c(n1)CCN(C)C2
216 to 218 °C	CCOCc1nc2c(N)nc3cc(OCc4ccccc4C)ccc3c2n1CC(C)C
49 to 51 °C	CCN(CCNC(=O)c1cnc2cc(I)ccc2n1)CCNc1cccc(Br)n1
122 to 123 °C	Cc1cc(CCCCCCCOc2ccc(C3=N[C@@H](C(C)C)CO3)cc2)on1
148 to 150 °C	CCC(=O)C(=CS(=O)(=O)c1ccc(OS(=O)(=O)c2ccc(C)cc2)cc1)N(C)C
208 °C	Cc1noc(NC(=O)C2c3ccccc3Oc3ccccc32)n1
161 to 162 °C	COc1ccc2c(c1)C(=O)c1c-2c(N2CCN(C(=O)CCNCCN(C)C)CC2)nc2ccccc12
266 to 267 °C	O=C(O)c1ccc(C(=O)c2cccnc2)cc1
148 to 149 °C	Cc1cccc(C)c1NC(=O)C(Cl)Br (configuration not stated)
80 to 81 °C	COc1ccccc1OC1CCN(C(=O)Cl)C1 (configuration not stated)
105 to 108 °C	Cc1c(F)c(F)cc(C(N)=O)c1F
60 to 62 °C	CCOC(=O)C(C)Oc1ccc(Oc2nc3ccc(Cl)nc3s2)cc1 (configuration not stated)
100 to 104 °C	COC(=O)CC1(CC(=O)N2CCN(C(=O)CC3=C(C(=O)OC)[C@H](c4c(Cl)cccc4Cl)C(C(=O)OC)=C(C[S@](=O)c4ccccc4)N3)CC2)CCCC1
207 °C	O=c1[nH]c2ccccc2c(=O)cc1NCCO
233 to 235 °C	CCCCCCCc1ccc(-c2nc(C)c(C(C)=NNC(=N)N)s2)cc1
238 °C	CNC1=C([N+](=O)[O-])C(=O)NC1=Cc1ccccc1
141 to 142 °C	O=CC(=Cc1ccccc1F)C(C=O)=Cc1ccccc1F
118 to 125 °C	CCN(Cc1c(F)cccc1Cl)c1c([N+](=O)[O-])cc(C(F)(F)F)c(Cl)c1[N+](=O)[O-]
86 to 87 °C	COC(=O)c1ccc(-c2cccc(C(=O)OC)c2)cc1
215 to 216 °C	NC(=O)c1[nH]cnc1OC1OC(COCc2ccccc2)C(OCc2ccccc2)C1OCc1ccccc1 (configuration not stated)
150 to 151 °C	COCCNC(=O)c1cccc(-c2cccc3c2nc(Oc2ccc(Cl)c(F)c2)n3C)c1

melting point	Compound
170 to 171 °C	Cc1[nH]nc(C(=O)NC2CCCC2)c1NC(=O)c1cnccn1
200 to 201 °C	CC(C)CC(=O)Nc1c(C(=O)c2cc(CO)co2)[nH]c2cc(Cl)ccc12
178 to 179 °C	COC(=O)Nn1c(N)c(C#N)c(C)c1-c1ccccc1
144 °C	Oc1ccc(Cl)cc1C(c1cc(Cl)ccc1O)C(F)(F)F
118 °C	O=c1c2ccccc2c(-c2ccccc2)cn1CCCN1CCCCC1
200 to 205 °C	CCCCC1(CCCC)NC(c2nc(-c3ccncc3)c[nH]2)Cc2c1[nH]c1ccccc21 (configuration not stated)
225 °C	COC(=O)Nc1nc2cnc3ccccc3c2n1CC(C)(C)O
285 °C	Nc1ccc(-c2noc(-c3cnn4c(C(F)F)cc(-c5ccc(C(F)(F)F)c(OCC(F)(F)F)c5)nc34)n2)cn1
245 °C	CCOC(=O)c1ccc(C(=O)NS(=O)(=O)c2ccc(CCNC(C)=O)cc2)cn1
204 °C	N#Cc1cnn2c(C(F)(F)F)cc(-c3ccc(F)c(C(F)(F)F)c3)nc12
127 to 128 °C	NC(=O)CNC(=O)c1cccc(-c2cccc3c(F)c(Cc4cccc(C(F)(F)F)c4)sc23)c1
185 to 186 °C	Cc1nc(-c2ccc(CN3C(=O)C4(COc5cc6c(cc54)CCO6)c4ccccc43)cc2)no1 (configuration not stated)
77 to 79 °C	COC(=O)Cc1ccc(CNC(=O)C2Cc3ccccc3N2S(=O)(=O)c2ccc(-c3ccc(F)cc3OC)cc2)cc1 (configuration not stated)
206 to 210 °C	Cc1cc(C)cc(NC(=O)c2ccc([N+](=O)[O-])cc2)c1
166 to 167 °C	CCOC(=O)c1c(C(C)(C)O)nc(CC)n1Cc1ccc(-c2ccccc2-c2nnn[nH]2)cc1
163 to 165 °C	CN1CNC(=S)N(c2ccc(C(F)(F)F)cc2)C1
305 to 307 °C	O=C1Cc2cc(C3=NNC(=O)C4CC34)ccc2N1 (configuration not stated)
> 300 °C	NC(=O)Nc1cccc2c1C(=O)c1c-2n[nH]c1-c1csc(Cl)c1
115 to 117 °C	O=C(NCc1ccccc1)c1sc2ccccc2c1Br
128 to 132 °C	COC(c1sc2ccc(Cl)cc2c1Cl)C(C)NC(=O)c1cn(C)nc1C(F)F (configuration not stated)
158 °C	O=C(OC1CCCCC1)C1=C(O)c2ccccc2S(=O)(=O)N1
95 °C	CCCCOc1ccc(C(=O)CCCCC(=O)O)cc1
